Test results published in patent US4233309A, “Novel 1-substituted-3-acylpyrrole derivatives, platelet aggregation inhibitors containing them, as active ingredients, and processes for production of said derivatives” (Teijin Limited, priority 1977, dated 1980).
Read-outs that look alike come from different tables or passages of the source.

What was measured:
Acute toxicity (Table 6) = assay type: in vivo; details: mouse, in vivo, mice, Litchfield-Wilcoxon, read-out: LD50 (50% lethal dose)
Procedure: (§1) ICR male mice with a body weight of 24 to 27 g (5 to 6 per group) were used. Each test compound was dissolved in propylene glycol in various concentrations, and administered orally (in a volume of 0.1 to 0.05 ml/10 g), subcutaneously (in a volume of 0.1 to 0.05 ml/10 g), or intraperitoneally (in a volume of 0.05 ml/10 g) to the mice. […] The LD50 (50% lethal dose) of each test compound was determined by the Litchfield-Wilcoxon method.
(§2) The denominator indicates the number of mice used, and the numerator, the number of dead mice.

ICR male mice = test: Acute toxicity (Table 6); assay type: in vivo; details: 10 days
Procedure: as §1, §2

[1] = system: platelet aggregation (guinea pig PRP, extra vivo); test: Inhibitory effect of compounds on platelet aggregation in extra vivo (Table 4); parameters: species or system Hartley-strain guinea pigs; details: Cavia porcellus, 100 mg/kg PO, 1 h after administration
Procedure: The effect of the compounds shown in Table 4 on platelet aggregation was assessed using guinea pig in extra vivo.
Each of the test compounds was dissolved in propylene glycol so that its concentration became 100 mg/ml (dosage corresponded to 100 mg/kg) and 30 mg/ml (dosage corresponded to 30 mg/kg). The drug solution was administered either orally or subcutaneously to Hartley-strain guinea pigs (3 per group) having a body weight of 300 to 350 g. As a control, propylene glycol was administered. One hour after the administration, citrated blood was taken out by cardiac puncture, and centrifuged to obtain PRP (see Example 67).
In the case of oral administration, the animals had been fasted overnight.
Into a quvett set in a holder of an aggregometer and prewarmed at 37° C. with stirring, was put 450 μl of the above PRP, and then 50 μl of an aggregating agent was added. The aggregation curve was recorded for an additional 3 minutes, and an increase in light transmittance through PRP after 3 minutes (TB) was recorded (see Example 67). As a control, an increase of transmittance of PRP taken from a guinea pig group administered with propylene glycol alone (TA) was recorded in the same way above. The percent inhibitions were calculated in accordance with the following equation. [formula]
As the aggregating agent, sodium arachidonate (a final concentraton of 0.03 mM) and a collagen suspension (a final concentration of 5 μg/ml) were used.
The percent inhibitions in the above table are averages of three guinea pigs. For details of the above extra vivo test about inhibition of platelet aggregation, the literature references described in Example 67 may be referred to.

carrageenan edema = test: Antiinflammatory activity (carrageenan edema of rat paw, Table 5); assay type: in vivo, Sprangue-Dawley (SD) male rats; details: 100 mg/kg orally, 3 h after 1% carrageenan
Procedure: Sprangue-Dawley (SD) male rats with a body weight of 160 to 180 g, four in each group, were used. The volume of the left leg was measured, and each of the test compounds shown in Table 5 (100 mg/kg dissolved in polyethylene glycol so as to provide a volume of 2 ml/kg) was orally administered. One hour later, 0.1 ml of 1% carrageenan (dissolved in physiological saline) as an inflammation-inducing substance was subcutaneously injected to the paw of the left hind leg. A control group was orally administered with 2 ml/kg of polyethylene glycol. As a positive control, 25 mg/kg of Ibprofen was similarly administered. Three hours after the injection of 1% carrageenan, the volume of the left leg was measured, and the ratio of edema was calculated from the volume before the administration of the carrageenan. The percent inhibition of edema in comparison with the control group was determined.

[2] = system: biosynthesis of prostaglandins (microsomes of the seminal vesicle of bovine); test: Inhibitory effect on prostaglandin biosynthesis in vitro (Table 3); assay type: biochemical; details: 4 μg/ml sodium arachidonate, bioassay on rat fundus stomach strips
Procedure: Sprangue-Dawley rats (male, 180-200 g) were fasted overnight, and killed by blow on the head. The stomach was isolated, and fundus stomach strips were prepared. The smooth muscle strips were perfused with Krebs-Hensleit solution (gassed with 95% O2 +5% CO2 gas) of 37° C. at a rate of […]. The Krebs-Hensleit solution contained 0.1 μg/ml of atropine, 0.1 μg/ml of phenoxybenzamine, 3 μg/ml of propranolol, 0.1 μg/ml of tripelennamine, and 0.2 μg/ml of methylsergide to prevent the effect of smooth muscle contracting substances, and 1 μg/ml of indomethacine to inhibit the biosynthesis of prostaglandin by the smooth muscles. Then, 150 μl of a reaction solution containing biologically synthesized prostaglandin was added to the perfusion solution, and the amount of the biologically synthesized prostaglandin was measured from the contraction of the smooth muscles. The contraction of the smooth muscles was recorded on a recorder using an isotonic transducer.
The reaction solution containing biologically synthesized prostaglandin was prepared in the following manner.
To 0.4 mg/ml of microsomes of the seminal vesicle of bovine were added 5 mM of L-tryptophan, 0.025 μM of bovine hemoglobin and 3 mμ of glutathione as cofactors. The mixture was incubated together with each of the test compounds shown in Table 4 at 37° C. for 2 minutes, and immediately then, 4 μg/ml of sodium arachidonate was added. The mixture was further incubated at 37° C. for 10 minutes, and immediately then, the prostaglandin activity of the reaction solution was measured by bioassay.
The microsomes of the seminal vesicle of bovine had been prepared by suspending microsomes of the seminal vesicle of bovine (a product of Miles Laboratories, Inc.) in a 50 mM Tris.HCl buffer (pH 7.4) using a glass homogenizer, and stored in ice water prior to use.
ID50 denotes the concentration of each test compound required to inhibit the biosynthesis of prostaglandins by 50%.

[3] = system: platelet aggregation (guinea pig PRP, extra vivo); test: Inhibitory effect of compounds on platelet aggregation in extra vivo (Table 4); parameters: species or system Hartley-strain guinea pigs; details: Cavia porcellus, 10 mg/kg SC, 1 h after administration
[4] = collagen 5 μg/ml, read-out: Percent inhibition of platelet aggregation, collagen
[5] = sodium arachidonate 0.03 mM, read-out: Percent inhibition of platelet aggregation, sodium arachidonate

SMILES: Cc1cc(C(=O)c2ccccc2)c(C)n1CC(C)O (stereo not drawn) [Compound 102, 2-(3-benzoyl-2,5-dimethylpyrrol-1-yl)-1-methylethanol]
- LD50 at 240 h (Acute toxicity (Table 6); ip, intraperitoneal): 110 mg/kg
- LD50 at 240 h (Acute toxicity (Table 6); po, peroral): > 4000 mg/kg
- LD50 at 240 h (Acute toxicity (Table 6); sc, subcutaneous): > 4000 mg/kg
- mortality (dead mice / mice used) (ICR male mice; intraperitoneal, 62.5 mg/kg): 0/5
- mortality (dead mice / mice used) (ICR male mice; intraperitoneal, 125 mg/kg): 4/5
- mortality (dead mice / mice used) (ICR male mice; intraperitoneal, 250 mg/kg): 5/5
- mortality (dead mice / mice used) (ICR male mice; intraperitoneal, 500 mg/kg): 5/5
- mortality (dead mice / mice used) (ICR male mice; peroral, 1000 mg/kg): 0/6
- mortality (dead mice / mice used) (ICR male mice; peroral, 2000 mg/kg): 0/6
- mortality (dead mice / mice used) (ICR male mice; peroral, 3000 mg/kg): 0/6
- mortality (dead mice / mice used) (ICR male mice; peroral, 4000 mg/kg): 1/6
- mortality (dead mice / mice used) (ICR male mice; subcutaneous, 4000 mg/kg): 0/5
- inhibition at 100 mg/kg [1, 4]: 29 to 55%
- inhibition at 100 mg/kg [1, 5]: 54 to 89%
- Percent inhibition of edema (carrageenan edema): 8%
- ID50 (concentration required to inhibit the biosynthesis of prostaglandins by 50%) [2]: 11.9 µg/mL
- inhibition at 10 mg/kg [3, 4]: 79%
- inhibition at 10 mg/kg [3, 5]: 99%
